Assay results taken from paper PMC2788680 (Journal of medicinal chemistry, 2009).
“Also recorded” adds a separate entry of the source. Where two headings read alike, the source gives them in different places. Numbered stars: 1 amine (or outer) side, 2 acyl side, 3 side chain; on linkers, the order of the positions; unused ones are H or OH. Bridge positions count the residues as written; N and C are the ends. Square brackets hold non-standard residues; d marks the D form. Peptide text beside a SMILES is read from it. 2Nal = N[C@@H](Cc1ccc2ccccc2c1)C(=O)O; CH2 = C([*:1])[*:2]

How the values were obtained:
DOR [1] = biological target: T1, DOR (Rattus norvegicus, UniProt P33533); format: cell-based
DOR [2] = biological target: T1, DOR; test: [35S]GTPγS binding assay, C6-DOR membranes; format: biochemical; details: [35S]GTPγS assay
MOR = MOR (Rattus norvegicus, UniProt P33535); test: [35S]GTPγS binding assay, C6-MOR membranes; format: biochemical; details: [35S]GTPγS assay
KOR = KOR (Homo sapiens, UniProt P41145); test: [35S]GTPγS binding assay, CHO-KOR membranes; format: biochemical; details: [35S]GTPγS assay
DOR [3] = biological target: T1, DOR; test: Antagonism of SNC80-stimulated [35S]GTPγS binding in C6-DOR; format: biochemical

T1 sequence (P33533 whole entry): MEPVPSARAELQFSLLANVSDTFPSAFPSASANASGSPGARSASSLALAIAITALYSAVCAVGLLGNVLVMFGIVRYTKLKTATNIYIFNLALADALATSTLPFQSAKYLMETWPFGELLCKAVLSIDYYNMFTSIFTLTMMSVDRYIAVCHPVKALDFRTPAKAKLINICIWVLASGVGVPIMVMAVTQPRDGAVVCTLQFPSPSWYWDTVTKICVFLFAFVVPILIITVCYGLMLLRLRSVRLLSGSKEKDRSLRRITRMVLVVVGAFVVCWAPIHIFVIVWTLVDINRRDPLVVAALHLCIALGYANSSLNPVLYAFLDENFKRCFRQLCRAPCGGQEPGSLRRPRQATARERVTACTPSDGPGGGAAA
KOR, sequence (P41145 whole entry): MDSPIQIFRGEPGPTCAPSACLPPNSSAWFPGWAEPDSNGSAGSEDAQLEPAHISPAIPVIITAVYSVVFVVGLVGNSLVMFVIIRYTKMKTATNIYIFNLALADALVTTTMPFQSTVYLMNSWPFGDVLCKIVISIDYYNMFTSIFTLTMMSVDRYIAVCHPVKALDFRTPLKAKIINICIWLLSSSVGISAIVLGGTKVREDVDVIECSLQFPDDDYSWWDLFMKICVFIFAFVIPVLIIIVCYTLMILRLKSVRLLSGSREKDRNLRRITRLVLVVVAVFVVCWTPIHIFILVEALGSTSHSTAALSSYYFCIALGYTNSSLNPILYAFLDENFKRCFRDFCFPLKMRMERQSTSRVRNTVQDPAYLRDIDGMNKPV
MOR, sequence (P33535 whole entry): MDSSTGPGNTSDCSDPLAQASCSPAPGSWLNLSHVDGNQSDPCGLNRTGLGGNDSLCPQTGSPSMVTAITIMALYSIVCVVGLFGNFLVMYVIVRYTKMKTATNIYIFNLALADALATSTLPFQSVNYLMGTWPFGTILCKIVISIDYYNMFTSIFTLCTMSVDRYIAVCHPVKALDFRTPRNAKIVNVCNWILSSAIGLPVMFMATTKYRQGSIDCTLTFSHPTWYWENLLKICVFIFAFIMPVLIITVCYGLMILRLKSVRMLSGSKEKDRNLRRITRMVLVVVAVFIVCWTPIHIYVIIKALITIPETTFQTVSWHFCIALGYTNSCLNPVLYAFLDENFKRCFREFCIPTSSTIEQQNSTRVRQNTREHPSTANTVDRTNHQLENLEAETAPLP

NC(=O)[C@@H]1CSCSC[C@@H](NC(=O)[C@@H](N)Cc2ccc(O)cc2)C(=O)N[C@@H](Cc2ccccc2)C(=O)N[C@@H](Cc2ccc3ccccc3c2)C(=O)N1 [compound 9, Tyr-c(S-CH2-S)[D-Cys-Phe-2-Nal-Cys]NH2] (H-Y[dC]F[2Nal]C-NH2; linker 2-5 via CH2; N-terminus assumed)
activity in adenylyl cyclase inhibition assay (DOR [1]; C6-DOR cells): partial agonist | calculated maximal inhibition of adenylyl cyclase (DOR [1]; calculated maximum, 5 µM forskolin-stimulated, C6-DOR cells): 43 ± 9.0% | efficacy profile at DOR (DOR [2]): essentially as antagonists | efficacy profile at MOR (MOR): full agonist | efficacy profile at KOR (KOR): full agonist | Kb (DOR [3]): 0.048 ± 0.0095 µM

C=CCN1C[C@H](C)N([C@H](c2ccc(C(=O)N(CC)CC)cc2)c2cccc(OC)c2)C[C@H]1C [SNC80, 4-[(R)-[(2S,5R)-4-allyl-2,5-dimethylpiperazin-1-yl](3-methoxyphenyl)methyl]-N,N-diethylbenzamide]
calculated maximal inhibition of adenylyl cyclase (DOR [1]): 76 ± 8.8%

Oc1ccc2c3c1O[C@H]1c4[nH]c5ccccc5c4C[C@@]4(O)[C@@H](C2)N(CC2CC2)CC[C@]314 [naltrindole]
activity in adenylyl cyclase inhibition assay (DOR [1]): without effect; also recorded: did not inhibit cAMP accumulation
